Here are results for four molecules from patent US11118227B2, “Methods of identifying agents having neuroprotective or anti-oxidant activity for regulating mitochondrial function” (THE ROYAL VETERINARY COLLEGE, priority 2015, dated 2021).

The structures appear in SMILES notation. “Also recorded” adds a separate entry of the source.

Data set [1] has as its system TSPO. In words: Immunofluorescence and immunoblot of TSPO in SHY-5Y cells treated with PD toxins. The format is cell-based. An excerpt: a. Representative immunofluorescence of TSPO in SHY-5Y Cells. Panels b and c: Immunoblot analysis of TSPO expression pattern and ATPB5 in SHY-5Y Cells treated with MPP^+ and 6-OHD.
Data set [2] concerns HeLa cells. Nature of the data set: Western blot of mitochondrial proteins (mitophagy) in HeLa cells. The class given is cell-based. The note with it: HeLa cells (PARK2 null), after 7 h and 24 h. An excerpt: (§1) B-actin is shown as a loading control. […].
Data set [3] concerns MEF cells. Nature of the data set: Confocal imaging of colocalisation of mitochondria and LC-3 in MEF cells. The format is cell-based, mouse. The note with it: 24 hr; for mitochondrial LC3 colocalisation (mitophagy): 1 μM sulforaphane or 10 μM PMI, FIG. 2D. The procedure: (D) Representative images of LC3 localization in MEF cells treated with DMSO vehicle control, or 1 μM sulforaphane and/or 10 μM PMI for 24 hr. Scale bar represents 10 μm. A magnification of the merge images is shown in areas demarcated by the white box.
To investigate the effects of sulforaphane in mitophagy, we examined the colocalisation of mitochondria and LC-3 in MEF cells using high-resolution confocal imaging (FIG. 2D).

The target of data set [4] is T1, human Keap1 Kelch protein (Homo sapiens, UniProt Q14145).
T1 construct: human Keap1 Kelch protein
T1 sequence (Q14145 321-609 limits assumed): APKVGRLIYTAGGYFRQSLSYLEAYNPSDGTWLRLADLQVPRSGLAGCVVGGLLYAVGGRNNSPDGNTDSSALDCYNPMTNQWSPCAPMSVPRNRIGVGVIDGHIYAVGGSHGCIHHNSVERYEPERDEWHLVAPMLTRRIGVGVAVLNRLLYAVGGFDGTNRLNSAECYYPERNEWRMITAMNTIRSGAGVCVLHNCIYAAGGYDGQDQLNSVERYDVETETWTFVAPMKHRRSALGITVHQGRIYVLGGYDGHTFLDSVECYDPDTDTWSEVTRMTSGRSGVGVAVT
Nature of the data set: Biochemical experiments on the Keap1-Nrf2 protein-protein interaction with human Keap1 Kelch protein. Here is the method:
To confirm the mode of action of PMI, a series of biochemical experiments were conducted with human Keap1 Kelch protein.

In data set [5] the test system is MEF cells. In words: Western blot of mitochondrial protein ubiquitination in mitochondrial fractions of MEF cells. The format is cell-based, mouse. Conditions: 24 h, FIG. 3B. The source says:
(B) Western blot of mitochondrial fractions, highlighting mitochondrial ubiquitination in control or sulforaphane and/or PMI-treated MEF cells. B-subunit is shown as a loading control; n=2.
(§2) The levels and localisation of p62 in MEF cells were then examined by immunoblotting (FIG. 3A).

For data set [6], the system named is MEF cells. Nature of the data set: Western blot of mitochondrial protein levels (MTCO-1, β-subunit) in MEF cells. The format is cell-based, mouse. The note with it: 24 h; for mitochondrial network / key mitochondrial protein levels by western blot: vs untreated cells; for PMI (Nrf2)-induced reduction of mitochondrial protein levels, on co-administration of sulforaphane: 10 μM PMI & 1 μM sulforaphane. Here is the method: [β-actin is shown as a loading control.
B-actin is shown as a loading control.
as §1
(§3) (A) Western blot to compare β-subunit, MTCO-1 and TSPO levels in MEFs treated with either DMSO vehicle control, or sulforaphane (1 μM), or PMI (10 μM) either with or without co-administration of UO126 (10 μM) for 24 h. B-actin is shown as a loading control.

The test system of data set [7] is PARK2. In words: Live imaging of YFP-PARK2 translocation in HeLa cells co-transfected with mt-RFP and YFP-PARK2. The format is cell-based. The note with it: for time of FCCP treatment to almost complete co-localisation of PARK2 in mitochondria: YFP-PARK2; for time of FCCP treatment at which PARK2 translocation was initiated: YFP-PARK2, pre- or co-treated.
The test system of data set [8] is TSPO mRNA. In words: RT-PCR of TSPO mRNA levels in MEF cells. The class given is cell-based, mouse. Conditions: 24 h, PMI (10 μM) or sulforaphane (1 μM), vs control. Here is the method:
(D) RT-PCR analysis for estimation of TSPO mRNA levels in MEFs following treatment with DMSO, PMI (10 μM) and/or sulforaphane (1 μM). Values are presented as arbitrary units normalized to 18s RNA levels for each sample, n≥3.
(§4) TSPO has been recently described as a modulator of mitophagy (Gatliff et al., 2014). We were therefore interested to examine if PMI and sulforaphane alter its accumulation on Mitochondria as well as its transcription levels FIG. 6E.

For data set [9], the system named is TSPO. In words: TSPO expression in PARK2 null cells (HeLa). The class given is cell-based.
Data set [10] has as its system TSPO. Nature of the data set: Immunoblotting of TSPO levels in MEF cells. The class given is cell-based, mouse. Conditions: 24 h, 1 μM sulforaphane or 10 μM PMI, vs control. The procedure: as §3
(B) Graph show MTCO-1:β-actin (B), β-subunit:β-actin (C), TSPO:β-actin ratio band density analysis, n=3.
as §4

Data set [11] concerns PARK2. In words: Western blot of PARK2 in mitochondrial fractions of MEF cells (basal conditions). The class given is cell-based, mouse. Conditions: 24 h; for levels of PARK2 in mitochondrial fractions: basal, vs vehicle control, FIG. 4A-B.
Source text: We therefore examined the ability of PARK2 to translocate to mitochondria either under basal conditions or after Carbonyl cyanide-4-(trifluoromethoxy)phenylhydrazone (FCCP an ionophore) treatment.
Data set [12] deals with P62. The note with it: East et al 2014, cited from earlier work.
For data set [13], the system named is PARK2. Nature of the data set: Immunocytochemistry of FCCP-induced PARK2 translocation in MEF cells. The class given is cell-based, mouse. The note with it: 24 hr treatment then FCCP (20 μM) 4 hr, vs vehicle control, FIG. 4E. Here is the method: (E) Representative images of PARK2 localization in MEF cells treated with DMSO vehicle control or 1 μM sulforaphane and/or 10 μM PMI for 24 hr, before and after treatment with FCCP (20 μM) for 4 hr. Scale bar represents 10 μm. A magnification of the merge images is shown in areas demarcated by the white box.

Data set [14] concerns p62. The note with it: MEF cells, 24 h, 1 μM sulforaphane. Here is the method: (A) Representative images of P62 localization in MEF cells treated with DMSO vehicle control, or 1 μM sulforaphane and/or 10 μM PMI for 24 hr. Scale bar represents 10 μm. A magnification of the merge images is shown in areas demarcated by the white box. […].
as §2

Data set [15] deals with MEF cells. Conditions: 24 h, 1 μM sulforaphane or 10 μM PMI, previously reported work (East et al., 2014), FIG. 1C; cited from earlier work.

For `C[n+]1ccc(-c2ccccc2)cc1` [MPP^+], in data set [1], the TSPO expression entry is given as “upregulate TSPO”.

Take `O=[N+]([O-])c1cccc(-c2cn(-c3cccc(I)c3)nn2)c1` [PMI]: the “induction of mitophagy (mitochondrial protein levels)” value in data set [2] is listed as “induction of mitophagy was observed”. For the same molecule, the “mitochondrial LC3 colocalisation (mitophagy)” value in [3] is “significantly increased compared to untreated cells”. Besides, in [4], the “degradation of the Keap1 Kelch protein” value is on record as “without causing a degradation of the Keap1 Kelch protein”; the “disruption of the protein-protein interaction between Keap1 and Nrf2” value is “able to disrupt the protein-protein interaction between Keap1 and Nrf2 in a dose-dependent manner”. In [5] (vs vehicle control), the “ubiquitination in mitochondrial fractions” value was “increased ubiquitination”. Also, the “mitochondrial network / key mitochondrial protein levels by western blot” value in data set [6] is reported as “reduced mitochondrial network”. In addition, in data set [7], the “time of FCCP treatment to almost complete co-localisation of PARK2 in mitochondria” value is given as “approximately 60 mins” and the “time of FCCP treatment at which PARK2 translocation was initiated” value is 30 min. For the same molecule, the “levels of TSPO mRNA (RT-PCR)” value in data set [8] is recorded as “reduced compared to control”. In data set [9], the “expression of TSPO” value is “but not in the cells in which PARK2 is not expressioned such as HeLa cells”. Also, in data set [10], the “levels of TSPO by immunoblotting” value is recorded as “reduction in the levels of TSPO; also recorded: decreases TSPO levels in MEFs”. Moreover, the “levels of PARK2 in mitochondrial fractions” value in data set [11] is given as “no statistically significant differences”. In addition, in data set [11] (sulforaphane plus PMI), the “sulforaphane-reduced PARK2 activity, on addition of PMI” value is listed as “did not alter the reduced activity of PARK2”. Besides, in data set [12], the P62 expression result is on record as “upregulates P62 via stabilization of Nrf2” and the mitophagy result is recorded as “promotes mitophagy”. In addition, the “toxic effects on cells” value in data set [12] (at the concentrations used in the assays) is “does not mediate any apparent toxic effects on cells”. In addition, the “FCCP-induced PARK2 translocation” value in [13] is given as “no statistically significant differences”.

Regarding `NCCc1cc(O)c(O)cc1O` [6-HOD], the TSPO expression result in data set [1] was “upregulate TSPO”.

As to `C[S+]([O-])CCCCN=C=S` (stereo not shown) [sulforaphane], the “induction of mitophagy (mitochondrial protein levels)” value in data set [2] is on record as “induction of mitophagy was observed”. The “mitochondrial LC3 colocalisation (mitophagy)” value in data set [3] is on record as “no induction of mitophagy was observed”. In data set [3] (10 μM PMI plus 1 μM sulforaphane), the “mitochondrial LC3 colocalisation attributed to PMI, on addition of sulforaphane” value is “abolished”. Further, the “PMI-induced mitochondrial ubiquitination, on co-administration of sulforaphane” value in data set [5] (PMI plus sulforaphane) is listed as “abolished the effect attributed to PMI”. Further, in [6], the “PMI (Nrf2)-induced reduction of mitochondrial protein levels, on co-administration of sulforaphane” value is reported as “significant normalization of the mitochondrial protein levels” and the “mitochondrial network / key mitochondrial protein levels by western blot” value was “no significant differences”. Moreover, the “PMI (Nrf2)-induced reduction of mitochondrial protein levels, on co-administration of sulforaphane” value in data set [6] (listed as Sulforaphane) was “inhibits the Nrf2-induced reduction of mitochondrial protein levels”. For the same molecule, in [14], the “levels of p62 in the cytosol” value is recorded as “increased levels of p62 in the cytosol compared to control”; the “translocation of p62 to mitochondria” value was “impaired and significantly reduced compared to basal conditions”. In [7], the “time of FCCP treatment to almost complete co-localisation of PARK2 in mitochondria” value is “approximately 60 mins” and the “time of FCCP treatment at which PARK2 translocation was initiated” value stood at 30 min. Also, in data set [8], the “levels of TSPO mRNA (RT-PCR)” value is listed as “statistically significant increase”. For the same molecule, the “expression of TSPO” value in data set [9] was “does not affect the expression of TSPO”. In addition, in [10], the “levels of TSPO by immunoblotting” value is recorded as “no significant differences were observed”. For the same molecule, the “levels of TSPO by immunoblotting” value in data set [10] (listed as Sulforaphane) is “does not affect the expression of TSPO”. Besides, the “levels of PARK2 in mitochondrial fractions” value in [11] is “reduced compared to the vehicle control”. Besides, the “mitochondrial proteins (MTCO-1) by Western blot” value in data set [15] was “an increase in mitochondrial proteins”. Besides, the “FCCP-induced PARK2 translocation” value in data set [13] is listed as “no statistically significant differences”.
